From paper PMC9989926, “Zebrafish and medaka T1R (taste receptor type 1) proteins mediate highly sensitive recognition of L‐proline” (FEBS Open Bio, 2023)

Experiments:
mfT1R2a/mfT1R3 = target: T1, mfT1R2a/mfT1R3 (Oryzias latipes, UniProt Q2MHK2+Q2MHK5); assay: FLIPR Calcium […] cell-based calcium assay, FlexStation […]
T1 construct: gene TAS1R2a; entire coding regions, stably co-expressed with chimeric G-protein G16gust44 in Flp-In 293 cells; heterodimer; with Taste receptor type 1 member 3

zfT1R2a/zfT1R3 = target: T2, zfT1R2a/zfT1R3 (Danio rerio, UniProt Q2MHK9+Q2MHL1, Q2MHK9:Y247H); assay: as above
T2 construct: gene tas1r2.1; entire coding regions, stably co-expressed with chimeric G-protein G16gust44 in Flp-In 293 cells; heterodimer; T1R3 clone Y247H (C741T); with Taste receptor type 1 member 3
T2 sequence (Q2MHL1 26-825): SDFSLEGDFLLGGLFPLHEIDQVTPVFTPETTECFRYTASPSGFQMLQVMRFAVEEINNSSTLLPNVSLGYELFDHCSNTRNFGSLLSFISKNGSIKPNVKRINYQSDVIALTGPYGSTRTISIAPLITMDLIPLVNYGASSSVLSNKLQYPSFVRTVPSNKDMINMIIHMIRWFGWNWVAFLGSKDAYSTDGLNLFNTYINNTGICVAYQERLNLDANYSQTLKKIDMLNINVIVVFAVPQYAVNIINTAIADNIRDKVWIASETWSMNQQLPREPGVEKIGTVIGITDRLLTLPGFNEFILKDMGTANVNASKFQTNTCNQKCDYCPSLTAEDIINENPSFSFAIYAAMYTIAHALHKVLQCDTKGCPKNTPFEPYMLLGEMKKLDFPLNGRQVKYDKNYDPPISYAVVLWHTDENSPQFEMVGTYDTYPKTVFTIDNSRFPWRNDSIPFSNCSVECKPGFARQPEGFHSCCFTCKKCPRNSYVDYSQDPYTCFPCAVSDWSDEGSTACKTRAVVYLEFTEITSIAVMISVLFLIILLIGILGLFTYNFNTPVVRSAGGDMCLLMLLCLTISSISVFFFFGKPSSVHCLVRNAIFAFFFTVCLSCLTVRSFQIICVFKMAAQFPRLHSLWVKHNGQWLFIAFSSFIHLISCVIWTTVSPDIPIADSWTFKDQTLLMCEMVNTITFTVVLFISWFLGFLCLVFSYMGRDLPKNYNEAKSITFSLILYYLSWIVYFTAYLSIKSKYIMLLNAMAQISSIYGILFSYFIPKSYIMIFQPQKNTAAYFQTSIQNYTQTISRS
T2 sequence (Q2MHK9 25-850 Y247H): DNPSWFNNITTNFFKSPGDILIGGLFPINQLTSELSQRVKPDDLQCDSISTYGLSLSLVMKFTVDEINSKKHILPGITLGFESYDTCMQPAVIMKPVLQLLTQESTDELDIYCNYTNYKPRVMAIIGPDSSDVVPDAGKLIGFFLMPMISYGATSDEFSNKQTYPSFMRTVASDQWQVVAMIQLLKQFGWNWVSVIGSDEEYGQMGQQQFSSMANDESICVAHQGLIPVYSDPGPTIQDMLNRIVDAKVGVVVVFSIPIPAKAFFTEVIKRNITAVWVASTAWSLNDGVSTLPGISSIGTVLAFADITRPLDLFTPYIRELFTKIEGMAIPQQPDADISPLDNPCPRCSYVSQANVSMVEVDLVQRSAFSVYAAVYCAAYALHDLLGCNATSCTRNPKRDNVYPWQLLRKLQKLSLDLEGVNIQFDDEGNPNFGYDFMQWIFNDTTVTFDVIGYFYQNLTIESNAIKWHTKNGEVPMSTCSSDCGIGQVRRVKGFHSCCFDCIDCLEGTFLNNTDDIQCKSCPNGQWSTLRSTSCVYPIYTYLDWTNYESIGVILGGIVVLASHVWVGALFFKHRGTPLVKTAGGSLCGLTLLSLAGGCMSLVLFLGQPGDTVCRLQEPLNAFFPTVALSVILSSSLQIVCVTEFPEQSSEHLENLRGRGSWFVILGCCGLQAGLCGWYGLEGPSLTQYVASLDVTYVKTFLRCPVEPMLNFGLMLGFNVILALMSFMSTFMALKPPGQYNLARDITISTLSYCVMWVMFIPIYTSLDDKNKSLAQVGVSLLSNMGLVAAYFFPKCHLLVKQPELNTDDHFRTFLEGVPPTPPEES

zfT1R2b/zfT1R3 = target: T3, zfT1R2b/zfT1R3 (Danio rerio, UniProt A4PHQ8+Q2MHK9, Q2MHK9:Y247H); assay: as above
T3 construct: gene tas1r2.2; entire coding regions, stably co-expressed with chimeric G-protein G16gust44 in Flp-In 293 cells; heterodimer; T1R3 clone Y247H (C741T); with Taste receptor type 1 member 3
T3 sequence (A4PHQ8 18-823): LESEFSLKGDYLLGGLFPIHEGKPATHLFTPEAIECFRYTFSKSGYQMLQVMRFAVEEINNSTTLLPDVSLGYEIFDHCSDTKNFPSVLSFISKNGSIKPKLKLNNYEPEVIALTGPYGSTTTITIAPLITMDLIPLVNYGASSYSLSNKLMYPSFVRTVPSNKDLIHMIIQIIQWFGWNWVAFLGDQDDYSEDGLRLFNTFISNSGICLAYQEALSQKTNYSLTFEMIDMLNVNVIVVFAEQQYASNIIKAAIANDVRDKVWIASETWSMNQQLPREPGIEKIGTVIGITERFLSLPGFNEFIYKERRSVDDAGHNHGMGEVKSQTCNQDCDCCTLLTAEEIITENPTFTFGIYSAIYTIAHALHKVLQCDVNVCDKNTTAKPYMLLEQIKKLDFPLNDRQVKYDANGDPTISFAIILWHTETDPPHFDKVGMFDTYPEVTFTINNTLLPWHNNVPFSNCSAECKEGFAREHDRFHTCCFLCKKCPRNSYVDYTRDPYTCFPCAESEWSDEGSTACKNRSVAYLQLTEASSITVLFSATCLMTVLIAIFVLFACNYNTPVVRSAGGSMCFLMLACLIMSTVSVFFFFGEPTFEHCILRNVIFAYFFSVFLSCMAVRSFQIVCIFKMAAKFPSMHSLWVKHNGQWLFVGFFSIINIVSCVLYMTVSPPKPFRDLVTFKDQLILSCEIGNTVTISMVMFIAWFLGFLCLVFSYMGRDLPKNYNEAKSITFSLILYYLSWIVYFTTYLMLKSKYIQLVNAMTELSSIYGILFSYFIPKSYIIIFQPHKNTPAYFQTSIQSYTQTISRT
T3 sequence (Q2MHK9 25-850 Y247H): T2 sequence (Q2MHK9 25-850 Y247H)

mfT1R2b/mfT1R3 = target: T4, mfT1R2b/mfT1R3 (Oryzias latipes, UniProt Q2MHK2+Q2MHK4); assay: as above
T4 construct: gene TAS1R2b; entire coding regions, stably co-expressed with chimeric G-protein G16gust44 in Flp-In 293 cells; heterodimer; with Taste receptor type 1 member 3
T4 sequence (Q2MHK4 entry or part of it): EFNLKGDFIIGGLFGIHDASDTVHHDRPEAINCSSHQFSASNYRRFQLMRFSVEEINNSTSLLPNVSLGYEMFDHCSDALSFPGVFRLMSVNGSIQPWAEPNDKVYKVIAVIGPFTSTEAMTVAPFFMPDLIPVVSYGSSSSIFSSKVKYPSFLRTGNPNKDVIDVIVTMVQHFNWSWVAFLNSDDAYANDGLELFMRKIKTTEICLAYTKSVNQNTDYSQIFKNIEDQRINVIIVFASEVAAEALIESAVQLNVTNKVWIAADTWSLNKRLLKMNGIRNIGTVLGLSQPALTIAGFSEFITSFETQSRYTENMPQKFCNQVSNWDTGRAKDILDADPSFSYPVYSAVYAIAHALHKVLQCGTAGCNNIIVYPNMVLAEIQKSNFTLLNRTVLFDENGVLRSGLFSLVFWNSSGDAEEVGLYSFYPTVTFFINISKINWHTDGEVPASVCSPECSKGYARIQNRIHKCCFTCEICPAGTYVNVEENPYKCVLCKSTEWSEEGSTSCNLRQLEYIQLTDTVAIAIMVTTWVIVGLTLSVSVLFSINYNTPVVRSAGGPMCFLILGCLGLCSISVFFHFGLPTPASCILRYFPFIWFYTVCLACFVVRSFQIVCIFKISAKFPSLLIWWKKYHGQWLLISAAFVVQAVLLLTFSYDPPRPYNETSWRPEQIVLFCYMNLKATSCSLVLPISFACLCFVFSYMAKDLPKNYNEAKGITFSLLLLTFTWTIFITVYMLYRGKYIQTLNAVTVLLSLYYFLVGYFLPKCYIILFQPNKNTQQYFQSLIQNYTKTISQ
T4 sequence (Q2MHK2 entry or part of it): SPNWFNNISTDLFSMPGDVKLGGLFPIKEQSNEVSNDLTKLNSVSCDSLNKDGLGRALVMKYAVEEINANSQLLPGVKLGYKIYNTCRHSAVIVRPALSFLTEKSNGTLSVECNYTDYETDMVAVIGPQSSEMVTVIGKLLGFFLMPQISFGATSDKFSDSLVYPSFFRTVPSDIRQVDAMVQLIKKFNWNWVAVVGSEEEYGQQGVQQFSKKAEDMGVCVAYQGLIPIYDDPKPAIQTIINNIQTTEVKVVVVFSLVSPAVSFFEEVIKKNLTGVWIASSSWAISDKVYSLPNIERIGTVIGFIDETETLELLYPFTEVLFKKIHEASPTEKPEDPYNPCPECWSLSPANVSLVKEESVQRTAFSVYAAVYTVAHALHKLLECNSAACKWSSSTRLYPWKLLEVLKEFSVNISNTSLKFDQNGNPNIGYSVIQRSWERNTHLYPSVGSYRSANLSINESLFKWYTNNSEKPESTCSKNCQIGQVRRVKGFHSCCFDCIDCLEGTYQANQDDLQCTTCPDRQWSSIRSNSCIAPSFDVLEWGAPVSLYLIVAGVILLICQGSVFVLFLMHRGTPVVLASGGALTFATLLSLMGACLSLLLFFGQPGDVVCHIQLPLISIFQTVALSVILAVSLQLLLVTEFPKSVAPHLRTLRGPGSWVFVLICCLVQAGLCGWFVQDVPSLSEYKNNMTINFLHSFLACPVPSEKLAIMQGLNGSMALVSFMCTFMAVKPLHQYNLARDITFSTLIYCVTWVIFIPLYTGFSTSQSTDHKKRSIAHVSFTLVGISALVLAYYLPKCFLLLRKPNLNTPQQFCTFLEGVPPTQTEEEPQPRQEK

mfT1R2c/mfT1R3 = target: T5, mfT1R2c/mfT1R3 (Oryzias latipes, UniProt Q2MHK2+Q2MHK3, Q2MHK3:V394L); assay: cell-based
T5 construct: gene TAS1R2c
T5 sequence (Q2MHK2 entry or part of it): as above
T5 sequence (Q2MHK3 entry or part of it V394L): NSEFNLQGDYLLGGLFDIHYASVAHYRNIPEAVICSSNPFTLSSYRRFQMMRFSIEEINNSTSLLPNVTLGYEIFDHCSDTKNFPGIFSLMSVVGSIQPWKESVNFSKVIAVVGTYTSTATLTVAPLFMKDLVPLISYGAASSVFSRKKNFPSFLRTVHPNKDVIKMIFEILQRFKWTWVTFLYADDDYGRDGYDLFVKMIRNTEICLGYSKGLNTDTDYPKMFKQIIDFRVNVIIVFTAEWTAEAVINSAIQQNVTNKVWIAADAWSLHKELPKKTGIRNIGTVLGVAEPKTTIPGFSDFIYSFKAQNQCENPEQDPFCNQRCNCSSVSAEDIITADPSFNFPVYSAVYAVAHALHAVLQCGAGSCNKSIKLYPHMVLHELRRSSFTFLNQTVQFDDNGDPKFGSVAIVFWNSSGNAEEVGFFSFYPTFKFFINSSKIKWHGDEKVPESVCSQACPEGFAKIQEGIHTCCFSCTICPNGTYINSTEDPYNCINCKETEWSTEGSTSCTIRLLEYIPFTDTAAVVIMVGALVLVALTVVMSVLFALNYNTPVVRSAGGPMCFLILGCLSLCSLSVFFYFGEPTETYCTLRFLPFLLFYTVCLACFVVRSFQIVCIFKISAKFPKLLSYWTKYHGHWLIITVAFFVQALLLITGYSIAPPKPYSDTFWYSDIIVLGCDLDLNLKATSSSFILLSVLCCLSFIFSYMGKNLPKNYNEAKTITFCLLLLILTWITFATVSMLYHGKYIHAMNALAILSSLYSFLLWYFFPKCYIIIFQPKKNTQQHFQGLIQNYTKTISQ

T1 sequence (Q2MHK2 entry or part of it): as the sequence (Q2MHK2 entry or part of it) above
T1 sequence (Q2MHK5 entry or part of it): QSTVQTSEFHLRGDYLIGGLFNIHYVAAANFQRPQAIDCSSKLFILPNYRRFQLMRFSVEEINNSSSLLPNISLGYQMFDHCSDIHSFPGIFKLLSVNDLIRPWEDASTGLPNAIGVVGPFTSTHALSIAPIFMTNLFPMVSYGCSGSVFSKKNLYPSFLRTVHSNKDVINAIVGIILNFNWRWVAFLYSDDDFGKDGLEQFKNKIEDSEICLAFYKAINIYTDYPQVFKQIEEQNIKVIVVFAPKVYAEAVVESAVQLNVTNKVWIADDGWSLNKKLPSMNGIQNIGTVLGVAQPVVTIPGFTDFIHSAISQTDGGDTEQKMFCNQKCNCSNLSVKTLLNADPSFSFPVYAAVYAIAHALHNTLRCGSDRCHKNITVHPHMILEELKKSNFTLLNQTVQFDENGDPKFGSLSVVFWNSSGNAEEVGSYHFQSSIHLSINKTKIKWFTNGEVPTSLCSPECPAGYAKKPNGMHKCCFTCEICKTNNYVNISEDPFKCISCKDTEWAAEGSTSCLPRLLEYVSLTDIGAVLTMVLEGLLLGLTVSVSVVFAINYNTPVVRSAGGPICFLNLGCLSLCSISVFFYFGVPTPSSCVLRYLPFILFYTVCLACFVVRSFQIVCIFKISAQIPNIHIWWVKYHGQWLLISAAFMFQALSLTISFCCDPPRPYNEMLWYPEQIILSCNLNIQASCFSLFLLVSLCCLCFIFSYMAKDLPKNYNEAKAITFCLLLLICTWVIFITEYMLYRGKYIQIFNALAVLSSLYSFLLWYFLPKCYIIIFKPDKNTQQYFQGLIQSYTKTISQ

## C[C@H](N)C(=O)O [L-alanine]
mfT1R2a/mfT1R3
  EC50: 1230 ± 70 µM
zfT1R2a/zfT1R3
  EC50: 220 ± 18 µM
zfT1R2b/zfT1R3
  EC50: 2030 ± 150 µM
mfT1R2b/mfT1R3
  EC50: 1750 ± 140 µM

## NC(=O)CC[C@H](N)C(=O)O [L-glutamine]
mfT1R2a/mfT1R3
  EC50: 58.8 ± 7.6 µM

## O=C(O)[C@@H]1CCCN1 [L-proline]
zfT1R2a/zfT1R3
  EC50: 164 ± 36 µM
zfT1R2b/zfT1R3
  EC50: 1720 ± 350 µM
mfT1R2b/mfT1R3
  EC50: 3050 ± 220 µM
mfT1R2c/mfT1R3
  EC50: 4.43 ± 0.38 µM
